US8580918B2, “Peptidic GLP-2 agonists” (Ferring B.V., priority 2009, dated 2013)
Where a SMILES comes first, the peptide text is derived from it. [ ]: non-standard residue; d: D form. dPhe(4-Cl) = N[C@H](Cc1ccc(Cl)cc1)C(=O)O; Dip = N[C@H](C(=O)O)C(c1ccccc1)c1ccccc1; dPhe(2-Cl) = N[C@H](Cc1ccccc1Cl)C(=O)O; hPhe = N[C@@H](CCc1ccccc1)C(=O)O; d2Thi = N[C@H](Cc1cccs1)C(=O)O; Nle = CCCC[C@H](N)C(=O)O

test: Pharmacokinetics in rats after intravenous bolus injection (systemic clearance); format: in vivo; details: rat, plasma, 0.2 mg FB/kg, adult male Sprague-Dawley rats, i.v. bolus, dose 0.20 mg FB/kg, read-out: CL (ml/kg/min) Average
Experimental: Pharmacokinetic (PK) parameters of illustrative agonists of the GLP-2 receptor were determined in adult male Sprague-Dawley rats post intravenous bolus injection of compounds at doses of 0.1-1.0 mg/kg. Three or four doubly cannulated animals per compound were dosed via jugular vein, blood samples were collected at several intervals via carotid artery, and plasma samples were prepared from whole blood using K2EDTA as anticoagulant. Subsequent bioanalysis of samples included compound extraction and plasma concentration determination using standard LC/MS/MS methods. Analyte concentration was calculated from internal standard normalized peak area and calibration curves.
For calculation of PK parameters the compound concentration-time curves were analyzed with the noncompartmental data analysis software package PK Solutions 2.0™ (Summit Research Services, Montrose Colo.). The systemic clearance per kg body weight (CL) was calculated as the dose per kg body weight divided by the AUC extrapolated to infinity based on trapezoid calculation (AUC∞). Values reported are the arithmetic mean and standard deviation from the number of animals used for each compound as indicated on Table 3.

CCCC[C@H](NC(=O)[C@H](CCC(=O)O)NC(=O)[C@H](CC(=O)O)NC(=O)[C@H](CO)NC(=O)[C@H](Cc1ccccc1)NC(=O)[C@H](CO)NC(=O)CNC(=O)[C@H](CC(=O)O)NC(=O)CNC(=O)[C@@H](N)Cc1c[nH]cn1)C(=O)N[C@@H](CC(N)=O)C(=O)N[C@H](C(=O)N[C@H](C(=O)N[C@@H](CC(C)C)C(=O)N[C@@H](CC(=O)O)C(=O)N[C@H](C(=O)N[C@@H](CC(C)C)C(=O)N[C@@H](C)C(=O)N[C@@H](C)C(=O)N[C@@H](CCCNC(=N)N)C(=O)N[C@@H](CC(=O)O)C(=O)N[C@@H](Cc1ccccc1)C(=O)N[C@H](C(=O)N[C@@H](CC(N)=O)C(=O)N[C@@H](Cc1c[nH]c2ccccc12)C(=O)N[C@@H](CC(C)C)C(=O)N[C@H](C(=O)N[C@@H](CCC(N)=O)C(=O)N[C@H](C(=O)N[C@@H](CCCCN)C(N)=O)[C@@H](C)O)[C@@H](C)CC)[C@@H](C)CC)C(c1ccccc1)c1ccccc1)[C@@H](C)CC)[C@@H](C)O [Compound 26, [Gly2,Nle10,Dip16] hGLP-2 (1-30)-NH2] (H-HGDGSFSDE[Nle]NTILD[Dip]LAARDFINWLIQTK-NH2) and CCCC[C@H](NC(=O)[C@H](CCC(=O)O)NC(=O)[C@H](CC(=O)O)NC(=O)[C@H](CO)NC(=O)[C@H](Cc1ccccc1)NC(=O)[C@H](CO)NC(=O)CNC(=O)[C@H](CC(=O)O)NC(=O)CNC(=O)[C@@H](N)Cc1c[nH]cn1)C(=O)N[C@@H](CC(N)=O)C(=O)N[C@H](C(=O)N[C@H](C(=O)N[C@@H](CC(C)C)C(=O)N[C@@H](CC(=O)O)C(=O)N[C@@H](CCc1ccccc1)C(=O)N[C@@H](CC(C)C)C(=O)N[C@@H](C)C(=O)N[C@@H](C)C(=O)N[C@@H](CCCNC(=N)N)C(=O)N[C@@H](CC(=O)O)C(=O)N[C@@H](Cc1ccccc1)C(=O)N[C@H](C(=O)N[C@@H](CC(N)=O)C(=O)N[C@@H](Cc1c[nH]c2ccccc12)C(=O)N[C@@H](CC(C)C)C(=O)N[C@H](C(=O)N[C@@H](CCC(N)=O)C(=O)N[C@H](C(=O)N[C@@H](CCCCN)C(N)=O)[C@@H](C)O)[C@@H](C)CC)[C@@H](C)CC)[C@@H](C)CC)[C@@H](C)O [Compound 28, [Gly2,Nle10,hPhe16] hGLP-2 (1-30)-NH2] (H-HGDGSFSDE[Nle]NTILD[hPhe]LAARDFINWLIQTK-NH2) are within 1.5-fold of each other in clearance: 0.33 mL/kg/min for the first, 0.44 mL/kg/min for the second.

Compared with CCCC[C@H](NC(=O)[C@H](CCC(=O)O)NC(=O)[C@H](CC(=O)O)NC(=O)[C@H](CO)NC(=O)[C@H](Cc1ccccc1)NC(=O)[C@H](CO)NC(=O)CNC(=O)[C@H](CC(=O)O)NC(=O)CNC(=O)[C@@H](N)Cc1cnc[nH]1)C(=O)N[C@H](Cc1ccc(Cl)cc1)C(=O)N[C@H](C(=O)N[C@H](C(=O)N[C@@H](CC(C)C)C(=O)N[C@@H](CC(=O)O)C(=O)N[C@@H](CC(N)=O)C(=O)N[C@@H](CC(C)C)C(=O)N[C@@H](C)C(=O)N[C@@H](C)C(=O)N[C@@H](CCCNC(=N)N)C(=O)N[C@@H](CC(=O)O)C(=O)N[C@@H](Cc1ccccc1)C(=O)N[C@H](C(=O)N[C@@H](CC(N)=O)C(=O)N[C@@H](Cc1c[nH]c2ccccc12)C(=O)N[C@@H](CC(C)C)C(=O)N[C@H](C(=O)N[C@@H](CCC(N)=O)C(=O)N[C@H](C(=O)N[C@@H](CCCCN)C(N)=O)[C@@H](C)O)[C@@H](C)CC)[C@@H](C)CC)[C@@H](C)CC)[C@@H](C)O [Compound 29, [Gly2,Nle10,D-Cpa11] hGLP-2 (1-30)-NH2] (H-HGDGSFSDE[Nle][dPhe(4-Cl)]TILDNLAARDFINWLIQTK-NH2), CCCC[C@H](NC(=O)[C@H](CCC(=O)O)NC(=O)[C@H](CC(=O)O)NC(=O)[C@H](CO)NC(=O)[C@H](Cc1ccccc1)NC(=O)[C@H](CO)NC(=O)CNC(=O)[C@H](CC(=O)O)NC(=O)CNC(=O)[C@@H](N)Cc1c[nH]cn1)C(=O)N[C@H](Cc1ccc(O)cc1)C(=O)N[C@H](C(=O)N[C@H](C(=O)N[C@@H](CC(C)C)C(=O)N[C@@H](CC(=O)O)C(=O)N[C@@H](CC(N)=O)C(=O)N[C@@H](CC(C)C)C(=O)N[C@@H](C)C(=O)N[C@@H](C)C(=O)N[C@@H](CCCNC(=N)N)C(=O)N[C@@H](CC(=O)O)C(=O)N[C@@H](Cc1ccccc1)C(=O)N[C@H](C(=O)N[C@@H](CC(N)=O)C(=O)N[C@@H](Cc1c[nH]c2ccccc12)C(=O)N[C@@H](CC(C)C)C(=O)N[C@H](C(=O)N[C@@H](CCC(N)=O)C(=O)N[C@H](C(=O)N[C@@H](CCCCN)C(N)=O)[C@@H](C)O)[C@@H](C)CC)[C@@H](C)CC)[C@@H](C)CC)[C@@H](C)O [Compound 39, [Gly2,Nle10,D-Tyr11] hGLP-2 (1-30)-NH2] (H-HGDGSFSDE[Nle][dY]TILDNLAARDFINWLIQTK-NH2) is 9.6-fold higher in clearance: 0.51 mL/kg/min for the first, 4.9 mL/kg/min for the second.

First: CCCC[C@H](NC(=O)[C@H](CCC(=O)O)NC(=O)[C@H](CC(=O)O)NC(=O)[C@H](CO)NC(=O)[C@H](Cc1ccccc1)NC(=O)[C@H](CO)NC(=O)CNC(=O)[C@H](CC(=O)O)NC(=O)CNC(=O)[C@@H](N)Cc1c[nH]cn1)C(=O)N[C@H](Cc1c[nH]c2ccccc12)C(=O)N[C@H](C(=O)N[C@H](C(=O)N[C@@H](CC(C)C)C(=O)N[C@@H](CC(=O)O)C(=O)N[C@@H](CC(N)=O)C(=O)N[C@@H](CC(C)C)C(=O)N[C@@H](C)C(=O)N[C@@H](C)C(=O)N[C@@H](CCCNC(=N)N)C(=O)N[C@@H](CC(=O)O)C(=O)N[C@@H](Cc1ccccc1)C(=O)N[C@H](C(=O)N[C@@H](CC(N)=O)C(=O)N[C@@H](Cc1c[nH]c2ccccc12)C(=O)N[C@@H](CC(C)C)C(=O)N[C@H](C(=O)N[C@@H](CCC(N)=O)C(=O)N[C@H](C(=O)N[C@@H](CCCCN)C(N)=O)[C@@H](C)O)[C@@H](C)CC)[C@@H](C)CC)[C@@H](C)CC)[C@@H](C)O [Compound 30, [Gly2,Nle10,D-Trp11] hGLP-2 (1-30)-NH2] (H-HGDGSFSDE[Nle][dW]TILDNLAARDFINWLIQTK-NH2)
Second: CCCC[C@H](NC(=O)[C@H](CCC(=O)O)NC(=O)[C@H](CC(=O)O)NC(=O)[C@H](CO)NC(=O)[C@H](Cc1ccccc1)NC(=O)[C@H](CO)NC(=O)CNC(=O)[C@H](CC(=O)O)NC(=O)CNC(=O)[C@@H](N)Cc1c[nH]cn1)C(=O)N[C@H](Cc1ccccc1Cl)C(=O)N[C@H](C(=O)N[C@H](C(=O)N[C@@H](CC(C)C)C(=O)N[C@@H](CC(=O)O)C(=O)N[C@@H](CC(N)=O)C(=O)N[C@@H](CC(C)C)C(=O)N[C@@H](C)C(=O)N[C@@H](C)C(=O)N[C@@H](CCCNC(=N)N)C(=O)N[C@@H](CC(=O)O)C(=O)N[C@@H](Cc1ccccc1)C(=O)N[C@H](C(=O)N[C@@H](CC(N)=O)C(=O)N[C@@H](Cc1c[nH]c2ccccc12)C(=O)N[C@@H](CC(C)C)C(=O)N[C@H](C(=O)N[C@@H](CCC(N)=O)C(=O)N[C@H](C(=O)N[C@@H](CCCCN)C(N)=O)[C@@H](C)O)[C@@H](C)CC)[C@@H](C)CC)[C@@H](C)CC)[C@@H](C)O [Compound 40, [Gly2,Nle10,D-2-Cpa11] hGLP-2 (1-30)-NH2] (H-HGDGSFSDE[Nle][dPhe(2-Cl)]TILDNLAARDFINWLIQTK-NH2)
The clearance of the first is 1.6-fold higher: 1.2 mL/kg/min for the first, 0.73 mL/kg/min for the second.

In the case of CCCC[C@H](NC(=O)[C@H](CCC(=O)O)NC(=O)[C@H](CC(=O)O)NC(=O)[C@H](CO)NC(=O)[C@H](Cc1ccccc1)NC(=O)[C@H](CO)NC(=O)CNC(=O)[C@H](CC(=O)O)NC(=O)CNC(=O)[C@@H](N)Cc1c[nH]cn1)C(=O)N[C@H](Cc1cccs1)C(=O)N[C@H](C(=O)N[C@H](C(=O)N[C@@H](CC(C)C)C(=O)N[C@@H](CC(=O)O)C(=O)N[C@@H](CC(N)=O)C(=O)N[C@@H](CC(C)C)C(=O)N[C@@H](C)C(=O)N[C@@H](C)C(=O)N[C@@H](CCCNC(=N)N)C(=O)N[C@@H](CC(=O)O)C(=O)N[C@@H](Cc1ccccc1)C(=O)N[C@H](C(=O)N[C@@H](CC(N)=O)C(=O)N[C@@H](Cc1c[nH]c2ccccc12)C(=O)N[C@@H](CC(C)C)C(=O)N[C@H](C(=O)N[C@@H](CCC(N)=O)C(=O)N[C@H](C(=O)N[C@@H](CCCCN)C(N)=O)[C@@H](C)O)[C@@H](C)CC)[C@@H](C)CC)[C@@H](C)CC)[C@@H](C)O [Compound 32, [Gly2,Nle10,D-Thi11] hGLP-2 (1-30)-NH2] (H-HGDGSFSDE[Nle][d2Thi]TILDNLAARDFINWLIQTK-NH2), the clearance is reported as 1.1 mL/kg/min.

same assay, conditions: rat, plasma, adult male Sprague-Dawley rats, i.v. bolus, dose 0.18 mg FB/kg, read-out: CL (ml/kg/min) Average

With CCCC[C@H](NC(=O)[C@H](CCC(=O)O)NC(=O)[C@H](CC(=O)O)NC(=O)[C@H](CO)NC(=O)[C@H](Cc1ccccc1)NC(=O)[C@H](CO)NC(=O)CNC(=O)[C@H](CC(=O)O)NC(=O)CNC(=O)[C@@H](N)Cc1c[nH]cn1)C(=O)N[C@H](C(=O)N[C@H](C(=O)N[C@H](C(=O)N[C@@H](CC(C)C)C(=O)N[C@@H](CC(=O)O)C(=O)N[C@@H](CC(N)=O)C(=O)N[C@@H](CC(C)C)C(=O)N[C@@H](C)C(=O)N[C@@H](C)C(=O)N[C@@H](CCCNC(=N)N)C(=O)N[C@@H](CC(=O)O)C(=O)N[C@@H](Cc1ccccc1)C(=O)N[C@H](C(=O)N[C@@H](CC(N)=O)C(=O)N[C@@H](Cc1c[nH]c2ccccc12)C(=O)N[C@@H](CC(C)C)C(=O)N[C@H](C(=O)N[C@@H](CCC(N)=O)C(=O)N[C@H](C(=O)N[C@@H](CCCCN)C(N)=O)[C@@H](C)O)[C@@H](C)CC)[C@@H](C)CC)[C@@H](C)CC)[C@@H](C)O)[C@@H](C)CC [Compound 31, [Gly2,Nle10,Ile11] hGLP-2 (1-30)-NH2] (H-HGDGSFSDE[Nle]ITILDNLAARDFINWLIQTK-NH2) the clearance was 5.6 mL/kg/min.
